Where a name gives a salt, the structure may show the parent alone.
System: not given
Settings: not given
In the case of `CN1Cc2cc(C(F)(F)F)ccc2C(c2ccccc2)C1` (stereo not shown), the melting point is reported as 257 to 275 °C. `Cc1ccc2c(c1)C(C)N(C)CC2c1ccccc1` (stereo not shown) gave a melting point of 87 to 89 °C. Compound `FCc1ccc2c(c1CF)CN(CF)CC2c1ccccc1` (stereo not shown) has a melting point of 108 to 113 °C. Compound `Cc1c(F)ccc2c1CN(C)CC2c1ccccc1` (stereo not shown) has a melting point of 185 to 186 °C. Work on `COc1c(C)ccc2c1CN(C)CC2c1ccccc1` (stereo not shown) yielded a melting point of 130 to 131 °C. In the case of `Cc1ccc2c(c1O)CN(C)CC2c1ccccc1` (stereo not shown), the melting point is reported as 260 to 261 °C. For `CN1Cc2cc(OC(F)(F)F)ccc2C(c2ccccc2)C1` (stereo not shown), the melting point was 150 to 151 °C (dec.). In the case of `CN1Cc2cc(Oc3ccccc3)ccc2C(c2ccccc2)C1` (stereo not shown), the melting point is reported as 175 to 176 °C (dec.). In the case of `CN1Cc2cc(OCc3ccccc3)ccc2C(c2ccccc2)C1` (stereo not shown), the melting point is reported as 155 to 156 °C. Compound `Cc1ccc2c(c1)CN(C)CC2c1ccc(F)c(C)c1` (stereo not shown) has a melting point of 174 to 175 °C. In the case of `CN1Cc2c(CO)cccc2C(c2ccccc2)C1` (stereo not shown), the melting point is reported as 144 to 146 °C. With `Cc1cc(F)c2c(c1)C(C)N(C)C(F)C2c1ccccc1` (stereo not shown) (as salt: HCl) the melting point was 194 to 197 °C (dec.). `CNCc1ccc2c(c1F)CN(C)CC2c1ccccc1` (stereo not shown) (as salt: HCl) gave a melting point of 185 to 205 °C. For `CN1Cc2cc(CO)ccc2C(c2ccccc2)C1` (stereo not shown) (as salt: HCl), the melting point was 237 to 240 °C (dec.). In the case of `Cc1ccc2c(c1F)CN(C)CC2c1ccccc1` (stereo not shown) (as salt: hydrochloride), the melting point is reported as 215 to 216 °C.

System: dopamine transporter protein over the norepinephrine transporter protein
Settings: selectivity for dopamine transporter protein over norepinephrine transporter protein; cited from earlier work
For `COC(=O)C(c1ccccc1)C1CCCCN1` (stereo not shown) [Methylphenidate], the “DAT/NET Ki ratio” value is given as 0.1.

— patent publication US7163949B1, “4-phenyl substituted tetrahydroisoquinolines and use thereof” (AMR Technology, Inc., priority 1999, dated 2007)
